The source of these data is patent US9910031B2, “Compositions and methods for modulating c-Rel-dependent cytokine production” (Synta Pharmaceuticals Corporation, priority 2003, dated 2018).

The test system of one assay is p65. As to the kind of experiment: Western blot of nuclear p65 in THP-1 cells. In kind it is cell-based, human. The source says: In order to understand this changes, the subcellular localization of NF-κB proteins was investigated using western blot analysis.
Of the transcription factors that have been analyzed, two factors, ICSBP and c-Rel, seem to be affected by Compound 1/Compound 2 treatment. ICSBP binds indirectly to the Ets-2 site. The primary NFκB trans-activator for IL-12 is the c-Rel/p50 heterodimer. Other dimers (p65/p50 and p50/p50) either lack activity or have inhibitory functions. Thus, c-Rel plays a role in IL-12 transcription as a result of both activation through NFκB and its interaction with ICSBP. […] The membranes were blocked with 5% milk in TBST buffer and then incubated with anti-c-Rel, anti-p65, anti-p50, anti-ICSBP or anti-PU-1 antibody (all the antibodies were purchased from Santa Cruz) at a dilution of 1:500 for 1 h at room temperature or overnight at 4° C. The membranes were washed and incubated with Horseradish Peroxidase-conjugated anti-rabbit IgG or anti-mouse IgG (Amersham, England) at a dilution of 1:2000 at room temperature for 1 h.
Compound 2 impairs nuclear translocation of c-Rel and p50. We examined the nuclear translocation kinetics of NF-kB family members in LPS stimulated cells treated with Compound 2. THP1 cells were stimulated with LPS in either the presence or absence of 100 nM Compound 2, and the distribution of the NF-κB Rel family members are determined by immunoblotting nuclear (n.p.) extracts collected at 5 min, 15 min, 30 min, 1 h, 3 h and 6 h post-treatment. In response to LPS stimulation, p50 translocated into the nucleus as early as 5 minutes post-stimulation and accumulates as time goes on (FIG. 7, immunoblots and FIG. 8 densitometry). […] The experiment examining p65 nuclear translocation is shown in FIG. 9 (immunoblots) and FIG. 10 (densitometry). In LPS stimulated cells, p65 translocated into the nucleus as early as 5 minutes post-stimulation and accumulated to maximum levels at 15-30 minutes post-stimulation. Treatment of LPS-stimulated cells with Compound 2 had no effect on the kinetics of p65 nuclear entry.
THP-1 cells were suspended in 20 volumes of buffer A containing 10 mM KCl, 10 mM HEPES (pH 7.9), 1 mM MgCl2, 1 mM dithiothreitol (DTT), 0.1% Nonidet p40 (NP-40), and 0.5 mM phenylmethylsulfonyl fluoride (PMSF) and homogenized and centrifuged at 10,000 rpm at 4 C for 5 min. Nuclear pellets were then suspended in buffer C containing 400 mM NaCl, 20 mM HEPES 9 pH 7.9), 15 mM MgCl2, 0.2 mM EDTA, 1 mM DTT, 25% glycerol, 1 mM PMSF, and 10 ug of leupeptin, 20 ug of pepstatin, and 10 ug/ml antipain, incubated for 30 min at 4 C, and centrifuged at 14,000 rpm for 20 min. The supernatants were dialyzed against buffer D containing 100 mM NaCl, 20 mM HEPES (pH 7.9), 20% glycerol, 1 mM PMSF, and 1 mM DTT. […]
(In general: Immunoblotting shows a protein as a band on a membrane.)

Another assay has as its system IκBα. In words: Inducible degradation of IκBα, Western blot and FACS analysis. Format: cell-based, human. The note with it: THP-1 and RAW267.4 cells, IFN-γ/LPS or IFN-γ/SAC, 500 nM, 30 min and 2 hrs. As for the experimental part:
IκB degradation is one of the steps in the signaling pathway of NFκB dependent genes. The activity of Compound 2 in inducible degradation of IκBα □ and IκBβ was investigated in THP-1 cells using Western blot and FACS analysis. […] Similar results were observed from the Compound 2 pre-treatment samples in which Compound 2 was added […] before stimulation.

Another assay deals with IL-12 p40. As to the kind of experiment: IL-12 p40 production in human monocyte-derived dendritic cells. Format: cell-based. The note with it: up to 10 μM. As for the experimental part:
Although c-Rel has a role in the expression of both p35 and p40 in monocytes and macrophages as well as p35 in dendritic cells (DCs), p40 expression in dendritic cells is c-Rel-independent (Grumont et al. J. Exp. Med. 2001; 194:1021-1031). If Compound 2 is acting through c-Rel, this drug should inhibit both p40 and p70 production by PBMCs. However, Compound 2 should inhibit the production of p70 (through inhibition of p35) in DCs, but should not inhibit p40 in DCs. This was tested by generating monocyte-derived dendritic cells according to the following method. Human PBMC at 1×10^7 cells/ml were suspended in serum-free DMEM and incubated for 2 hrs at 37° C. under 5% CO2. The non-adherent cells then were removed by washing with PBS. The adherent cells were cultured in RPMI-1640 medium containing rhIL-4 (100 U/ml) and rhGM-CSF (1000 U/ml) for 6-7 days. The half volume fresh media and full-volume fresh cytokines were added every other day. The cells were then primed with IFN-γ (100 U/ml) and followed by 0.01% SAC or 1 μg/ml LPS, in the presence of different concentrations of Compound 2 or other compounds. The test compounds were prepared in DMSO and the final DMSO concentration was adjusted to 0.25% in all cultures, including the compound-free control. Cell-free supernatants were taken 18 h later for the measurement of cytokines.

For the compound `Cc1cccc(C=NNc2cc(N3CCOCC3)nc(OCCc3ccccn3)n2)c1` [Compound 2, N-(3-methyl-benzylidene)-N′-[6-morpholin-4-yl-2-(2-pyridin-2-yl-ethoxy)-pyrimidin-4-yl]-hydrazine], the “amount of p65 in nuclear” value with p65 (500 nM, 3 hr, relative to untreated cells) was “significantly increased”. Also, the “nuclear p65 protein (FIG. 4)” value with p65 (THP1, IFN-γ plus LPS or IFN-γ plus SAC) is on record as “increased”. In the assay on p65 (THP1, LPS, 100 nM), the “kinetics of p65 nuclear entry” value is recorded as “no effect”. In the assay on p65 (THP1, LPS, 100 nM, 6 hours, relative to untreated cells), the “level of nuclear p65” value is given as “small increase”. Moreover, the “amount of IκBα in the cytoplasm, treated vs untreated” value with IκBα is “no significant difference”. Further, the “p40 production in human DCs” value with IL-12 p40 is reported as “no inhibition”.
